Measurements reported in US20080311122A1, “Antagonists of Hmgb1 and/or Rage and Methods of Use Thereof” (Medimmune, LLC, priority 2005, published 2008).
Entries after “also recorded” stand apart in the source; their conditions may differ.

Key:
[1] = tested on: pDCs; test: Stimulation of pDCs isolated from bone marrow, cytokine ELISA; format: cell-based, mouse; settings: 24 hr
Text: Mice and Bone Marrow Cells: C57BL/6 mice were obtained from The Jackson Laboratories and maintained in specific pathogen-free conditions in conventional animal facilities at MedImmune, Inc. TLR9 deficient and MyD88 deficient mice and their litter mate controls were maintained in animal facility of University of Massachusetts Medical School. RAGE deficient mice generated were obtained from Heidelburg Germany and maintained at the University of Massachusetts Medical School. Fresh bone marrow cells were collected and pDCs were isolated from bone marrow cells using miltenyibiotec's plasmacytoid dendritic cell isolation kit. pDCs were re-suspended in Opti-MEM (Invitrogen) and stimulated […] cell/well for 24 hr and cytokine level in the supernatant was measured by ELISA.

[2] = molecular target: CpG A DNA; test: Tryptophan emission for CpG-A binding to HMGB1; settings: intrinsic tryptophan fluorescence; read-out: apparent Kd for CpG A DNA
Experimental: Tryptophan emission for CpG-A binding to HMGB1: Fluorescence titrations and spectra of HMGB-1 were carried out at 25° C. with a SPEX Fluoromax-3 spectrofluorimeter, monitoring the HMGB-1 intrinsic tryptophan emission at 347 nm (8 nm bandwidth) with 280 nm excitation (3 nm bandwidth) in a masked capped dual-pathlength (0.2×1.0 cm) quartz cell (Hellma Cells, Inc., Jamaica, N.Y.) upon stepwise addition of CpG-A (0.5 mM) to a 1.7 μM solution of HMGB-1 in 1:10 Dulbecco Phosphate Buffered Saline (PBS) solution (Invitrogen, Carlsbad, Calif.). Complex formation between HMGB-1 and the nucleic acid was monitored by the change in the initial fluorescence of the protein. HMGB-1 fractional saturation was inferred from the ratio of observed fluorescence change to maximal change (at saturation), Flim, for each of the nucleic acid additions. Binding affinity was calculated from graphs of relative fluorescence intensity versus [nucleic acid base]/[protein].The occluded binding site size (n) was derived from the intersection of the extrapolated initial slope with the limiting fluorescence plateau in the equilibrium binding isotherms. The measurements for assessment of Tryptophan emission are reviewed in detail in Lakowicz, 2000, Photochem. Photobiol. 72, 421-437.

[3] = tested on: mouse macrophages; test: TNF-a induction in mouse macrophages; format: cell-based
Experimental: TNF-a Induction: To examine mRNA levels macrophages were derived from mouse bone marrow using M-CSF. Macrophages were then stimulated by LPS, E. coli produced recombinant HMGB1 or HMGB1 purified from bovine thymus for indicated length of time and mRNA is measured by Taqman. To examine protein levels thioglycant activated mouse peritoneal macrophages were stimulated with 10 μg/mL of HMGB1 purified from bovine thymus or recombinant HMGB1 generated from E. coli for 24 hr. Cytokines in the supernatant were measured by ELISA.

[4] = tested on: AM14 B cells; test: DNA immune complex and AM14 cell binding assay; format: cell-based, mouse
Experimental: DNA immune complex and AM14 cell binding assay DNA immune complexes were preformed by mixing spent culture supernatants with 15 μg/ml of PL2-3 (anti-nucleosome IgG2a). AM14 FcγRIIB−/− cells were incubated with a mixture of spent culture supernatants (CML sup.) and 15 μg/ml of PL2-3 (anti-nucleosome IgG2a) on ice. To analyze the effect of RAGE-Fc on the ability of the complexes to bind AM14 B cells, RAGE-Fc (or Fc control) was added to the immune complexes for an additional 2 h on ice. The chromatin immune complexes, or antibody alone, were added to 0.5×10^6 splenic purified AM14 FcγRIIB−/− B. HMGB1 in complexes was detected using an anti-HMGB1-Biotinylated antibody (MedImmune, Inc.) and PL2-3 was detected by an anti-IgG2a-FITC.

[5] = tested on: lupus plasma induced IFIT1 mRNA in human PBMCs; test: IFIT1 mRNA induction in PBMCs by lupus plasma; format: cell-based; settings: 20% lupus plasma
Experimental: Human Cell Culture and Isolation: Fresh PBMCs from healthy donors were prepared by Ficoll-hypaque fractionation and cultured at a density of 2×10^5Cells/0.1 ml in 96-well flat-bottomed plates in culture medium. 20% of lupus plasma was incubated with PBMC for 24 hrs. Some wells included antibodies anti-HMGB1, RAGE Fc or human IgG together with lupus plasma. After 24 hrs, PBMCs were collected and lysed. Total RNA was purified using the 96-well Total RNA Purification Kit (Gentra, Minneapolis, Minn.). 11 μl of this RNA was reverse-transcribed to cDNA in a 20 μl reaction using SuperScript III RNase H-Reverse Transcriptase (Invitrogen, Carlsbad, Calif.). cDNA obtained from each sample was diluted 1:[…] was amplified in a 25 μl real-time PCR reaction using 0.4 μM of sense and antisense primers and the 2×iQ SYBR Green Supermix (Bio-Rad, Hercules, Calif.). GAPDH was used as a housekeeping gene control. Primer sequences for IFIG and GAPDH were: IFIT1 forward, 5′-[…]-3′ (SEQ ID NO: 111); IFIT1 reverse, 5′-AGTCAGCAGCCAGTCTCAG-3′ (SEQ ID NO: 112); GAPDH forward, 5′-CAACGGATTTGGTCGTATT-3′ (SEQ ID NO: 113); GAPDH reverse, 5′-[…]-3′ (SEQ ID NO: 114).

[6] = tested on: AM14 B cells; test: AM14 proliferation assay; format: cell-based, mouse
Experimental: AM14 proliferation assay: Purified AM14 B cells were preincubated with RAGE-Fc or control human IgG1 for 30 min at 37° C., and stimulated with 0.1 μg/ml of PL2-3 for 24 h at 37° C. Cells were then pulsed with [^3H]thymidine for 6 h.

[7] = tested on: CpG2216+thymus HMG1 induced IFN-a release (TLR9 signaling); test: Inhibition of HMG1 mediated enhancement of TLR9 signaling, CpG2216 + thymus HMG1 in bone marrow cells; format: cell-based; settings: mouse bone marrow cells
Experimental: HMGB1+TLR Ligand: Freshly isolated bone marrow cells were stimulated with TLR ligands (TLR3:PolyIC@5 μg/mL; TLR4:LPS@2.5 ng/mL; TLR5:flagellin@0.25 μg/mL; TLR7:polyU@4 μg/mL or R837@5 μg/mL; TLR9:CpG2216@1 μM) with or without presence of thymus HMGB1 (10 μg/mL) for 24 hr. Cytokines in the supernatant were measured by ELISA.
Inhibition of HMG1 Mediated Enhancement of TLR Signaling: Freshly isolated bone marrow cells were stimulated with TLR9 ligand CpG2216 (0.3 μM) and thymus HMGB1 (10 μg/mL) in the presence of different concentration of the anti-HMGB1 mAb E11 or control human IgG for 24 hr and IFN-a in the supernatant was measured by ELISA. CpG2216, HMGB1 and nonstimulatory DNA were used alone or in combination as controls for the assay.

[8] = tested on: native activated HMG1 stimulated IL-6 release from human PBMCs; test: Inhibition of cytokine release from PBMCs, native activated HMG1; format: cell-based
Experimental: Inhibition of Cytokine Release: Human peripheral blood mononuclear cells (PBMCs) were isolated from the peripheral blood of healthy volunteers by a density gradient centrifugation. Freshly drawn heparinized whole blood was mixed with two volume of PBS. The diluted blood was gently layered on the surface of Histopaque-1077 (Sigma-Aldrich) and centrifuged at 400×g, at RT for 30 minute. PBMCs were collected from the interface between the plasma and the density gradient solution. After washing in PBS 3×, the purified PBMCs were resuspended in RPMI-1640 medium (GIBCO BRL) containing 100 U/ml penicillin, 100 μg/ml streptomycin and […] β-mercaptoethanol. 1×10^5 of cells was added in each well of 96-well cell culture plates. […]
The culture media were analyzed for inflammatory cytokines using Beadlyte human multi-cytokine flex kit from Upstate by Luminex 100 (Luminex Corp.). Proinflammatory cytokines TNF-α, IL-6, IL-1β and IL-12 (p40) were measured for cells stimulated with recombinant HMG1. In addition, TNF-α, IL-6, IL-1β and IL-8 were measured for cells stimulated with native activated HMG1.
Cytokine release data is presented as mean of triplicates±standard deviations. […] It was calculated by PRISM program.

[9] = tested on: LPS+HMG1 induced TNF-a release (TLR4 signaling); test: Inhibition of HMG1 mediated enhancement of TLR4 signaling, LPS+HMG1 TNF-a release; format: cell-based, mouse

5′-GGGGGACGATCGTCGGGGGG-3′ [CpG DNA]
IFN-α production [1]: 32 ± 5 pg/mL
TNF-α production [1]: 43 ± 5 pg/mL

HMGB1: HMGB1 purified from bovine thymus
Kd [2]: 70 nM
induction of TNF-a mRNA levels ([3]; 2 hours, listed as native HMG1): ~30 fold
induction of TNF-a mRNA levels ([3]; 2 hours, listed as thymus HMG1): roughly 30 fold
induction of TNF-a mRNA levels ([3]; 8 hour): ~15 fold
increase in TNF-a protein levels ([3]; 24 hours, supernatant): no induction
IFN-α production [1]: ineffective

RAGE-Fc: RAGE-Fc fusion protein (soluble RAGE), RAGE antagonist
inhibition of binding of chromatin/DNA immune complexes to AM14 B cells [4]: blocks binding of chromatin IC to AM14 B cells; also recorded: inhibited binding of HMGB1-containing DNA immune complexes to the surface of B cells
inhibition of induction of IFIT1 mRNA by lupus plasma [5]: approx 75%
effect on TLR2, TLR4 ligand induced proliferation or BCR mediated B cell activation [6]: had no effect
inhibition of DNA immune complex (PL2-3) dependent proliferation of AM14 B cells ([6]; thymidine incorporation): reduced proliferation; also recorded: markedly inhibited PL2-3-dependent proliferation of AM14 B cells
inhibition of IFN-a release induced by CpG + thymus HMG1 [7]: inhibit IFN-a release
inhibition of IFN-a release induced by CpG + thymus HMG1 ([7]; listed as RAGE/Fc): significantly blocked CpG/HMGB1 complex induced IFN-α
inhibition of IFN-a release induced by CpG alone ([7]; listed as RAGE/Fc): did not block CpG-A induced IFN-α production
inhibition of IFN-a release induced by CpG + thymus HMG1 ([7]; listed as Rage/Fc): to a less extent; also recorded: inhibited the release of INF-a induced by CpG2216+thymus HMG1
inhibition of IFN-a release induced by CpG alone ([7]; listed as Rage/Fc): Neither E11, G4 or Rage/Fc inhibited
block of IL-6 release induced by native activated HMG1 [8]: able to block IL-6 released induced by native activated HMG1
inhibition of TNF-a release induced by LPS+HMG1 [9]: inhibits the release of TNF-a induced by LPS+HMG1; also recorded: could be blocked; also recorded: inhibit the release of TNFa induced by LPS+HMG1

lipopolysaccharide [LPS, reference compound]
induction of TNF-a mRNA levels ([3]; 2 hours): ~66 fold
induction of TNF-a mRNA levels ([3]; 8 hour): ~7 fold
